Test results published in patent US10294275B2, “Site-selective functionalization of glycopeptide antibiotics” (Yale University, priority 2012, dated 2019).
In brackets after ≈: the same amount, converted by molar mass.

Assays:
Format in all cases: cell-based
[1] = test system: methicillin-susceptible S. aureus, ATCC 29213; assay: Minimum inhibitory concentration against MSSA
From the text: (§1) The chemistry described above enabled direct synthesis of eleven previously unknown analogs of 3. The minimum inhibitory concentrations (MICs) for the new analogs as antibacterial agents as determined.

[2] = test system: methicillin-resistant S. aureus, ATCC 43300; assay: Minimum inhibitory concentration against MRSA; details: for potency against MRSA strain, in words: compared with vancomycin and teicoplanin
From the text: as §1

[3] = test system: vancomycin-susceptible enterococci, ATCC 29212; assay: Minimum inhibitory concentration against VSE; details: vancomycin-susceptible enterococci, ATCC 29212
From the text: as §1

[4] = test system: vancomycin-resistant enterococci (VanB), ATCC 51299; assay: Minimum inhibitory concentration against VRE (VanB)
From the text: as §1

[5] = test system: vancomycin-resistant enterococci (VanA), MMX 486; assay: Minimum inhibitory concentration against VRE (VanA); details: for activity against VRE (VanA) strain, in words: compared with vancomycin and teicoplanin
From the text: as §1

[6] = methicillin-susceptible S. aureus, ATCC 29213
[7] = methicillin-resistant S. aureus, ATCC 43300
[8] = vancomycin-resistant enterococci, ATCC 51299
[9] = MMX 486, vancomycin and teicoplanin resistant
[10] = compared with vancomycin and teicoplanin

Row | Compound | MIC, MSSA [1, 6] [µg/mL] | MIC, MRSA [2, 7] [µg/mL] | MIC, VSE [3] [µg/mL] | MIC, VRE (VanB) [4, 8] [µg/mL] | MIC, VRE (VanA) [5, 9] [µg/mL] | potency against MRSA strain, in words [2] | activity against VRE (VanB) strain, in words [4, 10] | activity against VRE (VanA) strain, in words [5] | potency against MSSA strain, in words [1, 10] | MIC ([1]; Staphylococcus aureus, methicillin-susceptible S. aureus, ATCC 29213, read-out: MIC, MSSA) [µg/mL] | MIC ([2]; Staphylococcus aureus, methicillin-resistant S. aureus, ATCC 43300, read-out: MIC, MRSA) [µg/mL] | MIC ([3]; read-out: MIC, VSE) [µg/mL] | MIC ([4]; Enterococcus, vancomycin-resistant enterococci, ATCC 51299, read-out: MIC, VRE (VanB)) [µg/mL] | MIC ([5]; Enterococcus, VRE, MMX 486, vancomycin and teicoplanin resistant, read-out: MIC, VRE (VanA)) [µg/mL]
1 | CC(=O)N[C@H]1[C@H](O[C@@H]2c3ccc(c(Cl)c3)Oc3cc4cc(c3O[C@@H]3O[C@H](CO)[C@@H](O)[C@H](O)[C@H]3NC(=O)CCCCCCC(C)C)Oc3ccc(cc3Cl)C[C@H]3NC(=O)[C@H](N)c5ccc(O)c(c5)Oc5cc(O)cc(c5)[C@H](NC3=O)C(=O)N[C@H]4C(=O)N[C@H]3C(=O)N[C@@H]2C(=O)N[C@H](C(=O)O)c2c(Br)c(O)cc(O[C@H]4O[C@H](CO)[C@@H](O)[C@H](O)[C@@H]4O)c2-c2cc3ccc2O)O[C@H](CO)[C@@H](O)[C@@H]1O [Compound 4] | 0.5 (≈ 0.255 µM) | 1 (≈ 0.511 µM) | 0.5 (≈ 0.255 µM) | 1 (≈ 0.511 µM) | >64 |  |  |  |  |  |  |  |  | 
2 | CC(=O)N[C@H]1[C@H](O[C@@H]2c3ccc(c(Cl)c3)Oc3cc4cc(c3O[C@@H]3O[C@H](CO)[C@@H](O)[C@H](O)[C@H]3NC(=O)CCCCCCC(C)C)Oc3ccc(cc3Cl)C[C@H]3NC(=O)[C@H](N)c5ccc(O)c(c5)Oc5cc(O)c(Br)c(c5)[C@H](NC3=O)C(=O)N[C@H]4C(=O)N[C@H]3C(=O)N[C@@H]2C(=O)N[C@H](C(=O)O)c2cc(O)cc(O[C@H]4O[C@H](CO)[C@@H](O)[C@H](O)[C@@H]4O)c2-c2cc3ccc2O)O[C@H](CO)[C@@H](O)[C@@H]1O [Compound 7] | 0.5 (≈ 0.255 µM) | 1 (≈ 0.511 µM) | 0.25 (≈ 0.128 µM) | 0.5 (≈ 0.255 µM) | >64 |  |  |  |  |  |  |  |  | 
3 | CC(=O)N[C@H]1[C@H](O[C@@H]2c3ccc(c(Cl)c3)Oc3cc4cc(c3O[C@@H]3O[C@H](CO)[C@@H](O)[C@H](O)[C@H]3NC(=O)CCCCCCC(C)C)Oc3ccc(cc3Cl)C[C@H]3NC(=O)[C@H](N)c5ccc(O)c(c5)Oc5cc(c(Br)c(O)c5Br)[C@H](NC3=O)C(=O)N[C@H]4C(=O)N[C@H]3C(=O)N[C@@H]2C(=O)N[C@H](C(=O)O)c2cc(O)c(Br)c(O[C@H]4O[C@H](CO)[C@@H](O)[C@H](O)[C@@H]4O)c2-c2cc3ccc2O)O[C@H](CO)[C@@H](O)[C@@H]1O [Compound 12] | 2 (≈ 0.945 µM) | 2 (≈ 0.945 µM) | 4 (≈ 1.89 µM) | 8 (≈ 3.78 µM) | >64 |  |  |  |  |  |  |  |  | 
4 | CC(=O)N[C@H]1[C@H](O[C@@H]2c3ccc(c(Cl)c3)Oc3cc4cc(c3O[C@@H]3O[C@H](CO)[C@@H](O)[C@H](O)[C@H]3NC(=O)CCCCCCC(C)C)Oc3ccc(cc3Cl)C[C@H]3NC(=O)[C@H](N)c5ccc(O)c(c5)Oc5cc(O)c(-c6ccoc6)c(c5)[C@H](NC3=O)C(=O)N[C@H]4C(=O)N[C@H]3C(=O)N[C@@H]2C(=O)N[C@H](C(=O)O)c2cc(O)cc(O[C@H]4O[C@H](CO)[C@@H](O)[C@H](O)[C@@H]4O)c2-c2cc3ccc2O)O[C@H](CO)[C@@H](O)[C@@H]1O [Compound 14] | 0.25 (≈ 0.128 µM) | 0.25 (≈ 0.128 µM) | 0.25 (≈ 0.128 µM) | 0.5 (≈ 0.257 µM) | >64 | higher potency |  |  |  |  |  |  |  | 
5 | CC(=O)N[C@H]1[C@H](O[C@@H]2c3ccc(c(Cl)c3)Oc3cc4cc(c3O[C@@H]3O[C@H](CO)[C@@H](O)[C@H](O)[C@H]3NC(=O)CCCCCCC(C)C)Oc3ccc(cc3-c3ccoc3)C[C@H]3NC(=O)[C@H](N)c5ccc(O)c(c5)Oc5cc(O)c(-c6ccoc6)c(c5)[C@H](NC3=O)C(=O)N[C@H]4C(=O)N[C@H]3C(=O)N[C@@H]2C(=O)N[C@H](C(=O)O)c2cc(O)cc(O[C@H]4O[C@H](CO)[C@@H](O)[C@H](O)[C@@H]4O)c2-c2cc3ccc2O)O[C@H](CO)[C@@H](O)[C@@H]1O [Compound 15] | 0.25 (≈ 0.126 µM) | 0.25 (≈ 0.126 µM) | 0.12 (≈ 0.0607 µM) | 0.25 (≈ 0.126 µM) | >32 |  |  |  |  |  |  |  |  | 
6 | CC(=O)N[C@H]1[C@H](O[C@@H]2c3ccc(c(Cl)c3)Oc3cc4cc(c3O[C@@H]3O[C@H](CO)[C@@H](O)[C@H](O)[C@H]3NC(=O)CCCCCCC(C)C)Oc3ccc(cc3-c3ccoc3)C[C@H]3NC(=O)[C@H](N)c5ccc(O)c(c5)Oc5cc(O)cc(c5)[C@H](NC3=O)C(=O)N[C@H]4C(=O)N[C@H]3C(=O)N[C@@H]2C(=O)N[C@H](C(=O)O)c2c(Br)c(O)cc(O[C@H]4O[C@H](CO)[C@@H](O)[C@H](O)[C@@H]4O)c2-c2cc3ccc2O)O[C@H](CO)[C@@H](O)[C@@H]1O [Compound 16] | 0.5 (≈ 0.251 µM) | 0.5 (≈ 0.251 µM) | 0.25 (≈ 0.126 µM) | 0.5 (≈ 0.251 µM) | >64 |  |  |  |  |  |  |  |  | 
7 | CC(=O)N[C@H]1[C@H](O[C@@H]2c3ccc(c(Cl)c3)Oc3cc4cc(c3O[C@@H]3O[C@H](CO)[C@@H](O)[C@H](O)[C@H]3NC(=O)CCCCCCC(C)C)Oc3ccc(cc3-c3ccc(-c5ccccc5)cc3)C[C@H]3NC(=O)[C@H](N)c5ccc(O)c(c5)Oc5cc(O)cc(c5)[C@H](NC3=O)C(=O)N[C@H]4C(=O)N[C@H]3C(=O)N[C@@H]2C(=O)N[C@H](C(=O)O)c2c(Br)c(O)cc(O[C@H]4O[C@H](CO)[C@@H](O)[C@H](O)[C@@H]4O)c2-c2cc3ccc2O)O[C@H](CO)[C@@H](O)[C@@H]1O [Compound 17] | 4 (≈ 1.93 µM) | 2 (≈ 0.963 µM) | 1 (≈ 0.482 µM) | 0.5 (≈ 0.241 µM) | 32 (≈ 15.4 µM) |  |  |  |  |  |  |  |  | 
8 | CC(=O)N[C@H]1[C@H](O[C@@H]2c3ccc(c(Cl)c3)Oc3cc4cc(c3O[C@@H]3O[C@H](CO)[C@@H](O)[C@H](O)[C@H]3NC(=O)CCCCCCC(C)C)Oc3ccc(cc3-c3ccoc3)C[C@H]3NC(=O)[C@H](N)c5ccc(O)c(c5)Oc5cc(O)cc(c5)[C@H](NC3=O)C(=O)N[C@H]4C(=O)N[C@H]3C(=O)N[C@@H]2C(=O)N[C@H](C(=O)O)c2cc(O)cc(O[C@H]4O[C@H](CO)[C@@H](O)[C@H](O)[C@@H]4O)c2-c2cc3ccc2O)O[C@H](CO)[C@@H](O)[C@@H]1O [Compound 18] | 0.25 (≈ 0.131 µM) | 0.25 (≈ 0.131 µM) | 0.12 (≈ 0.0628 µM) | 0.12 (≈ 0.0628 µM) | 32 (≈ 16.7 µM) |  | enhancement of activity | enhancement of activity |  |  |  |  |  | 
9 | CC(=O)N[C@H]1[C@H](O[C@@H]2c3ccc(c(Cl)c3)Oc3cc4cc(c3O[C@@H]3O[C@H](CO)[C@@H](O)[C@H](O)[C@H]3NC(=O)CCCCCCC(C)C)Oc3ccc(cc3-c3ccc(-c5ccccc5)cc3)C[C@H]3NC(=O)[C@H](N)c5ccc(O)c(c5)Oc5cc(O)cc(c5)[C@H](NC3=O)C(=O)N[C@H]4C(=O)N[C@H]3C(=O)N[C@@H]2C(=O)N[C@H](C(=O)O)c2cc(O)cc(O[C@H]4O[C@H](CO)[C@@H](O)[C@H](O)[C@@H]4O)c2-c2cc3ccc2O)O[C@H](CO)[C@@H](O)[C@@H]1O [Compound 19] | 8 (≈ 4.01 µM) | 4 (≈ 2 µM) | 0.5 (≈ 0.25 µM) | 0.25 (≈ 0.125 µM) | 8 (≈ 4.01 µM) | loss of potency |  | significant activity | loss of potency |  |  |  |  | 
10 | CCCCCC/C=C/c1cc2ccc1Oc1cc3cc(c1O[C@@H]1O[C@H](CO)[C@@H](O)[C@H](O)[C@H]1NC(=O)CCCCCCC(C)C)Oc1ccc(cc1Cl)[C@@H](O[C@@H]1O[C@H](CO)[C@@H](O)[C@H](O)[C@H]1NC(C)=O)[C@@H]1NC(=O)[C@H](NC(=O)[C@@H]3NC(=O)[C@H]3NC(=O)[C@@H](C2)NC(=O)[C@H](N)c2ccc(O)c(c2)Oc2cc(O)cc3c2)c2ccc(O)c(c2)-c2c(O[C@H]3O[C@H](CO)[C@@H](O)[C@H](O)[C@@H]3O)cc(O)cc2[C@@H](C(=O)O)NC1=O [Compound 20] | 8 (≈ 4.09 µM) | 4 (≈ 2.05 µM) | 0.5 (≈ 0.256 µM) | 0.25 (≈ 0.128 µM) | 1 (≈ 0.511 µM) |  |  | quite high (significant) potency |  |  |  |  |  | 
11 | CC(=O)NC[C@H]1CN(c2ccc(N3CCOCC3)c(F)c2)C(=O)O1 [Linezolid, reference compound] |  |  |  |  |  |  |  |  |  | 4 (≈ 11.9 µM) | 4 (≈ 11.9 µM) | 2 (≈ 5.93 µM) | 2 (≈ 5.93 µM) | 2 (≈ 5.93 µM)
12 | CC(=O)N[C@H]1[C@H](O[C@@H]2c3ccc(c(Cl)c3)Oc3cc4cc(c3O[C@@H]3O[C@H](CO)[C@@H](O)[C@H](O)[C@H]3NC(=O)CCCCCCC(C)C)Oc3ccc(cc3Cl)C[C@H]3NC(=O)[C@H](N)c5ccc(O)c(c5)Oc5cc(O)cc(c5)[C@H](NC3=O)C(=O)N[C@H]4C(=O)N[C@H]3C(=O)N[C@@H]2C(=O)N[C@H](C(=O)O)c2cc(O)cc(O[C@H]4O[C@H](CO)[C@@H](O)[C@H](O)[C@@H]4O)c2-c2cc3ccc2O)O[C@H](CO)[C@@H](O)[C@@H]1O [Teicoplanin A2-2, reference compound] | 0.5 (≈ 0.266 µM) | 0.5 (≈ 0.266 µM) | 0.25 (≈ 0.133 µM) | 0.25 (≈ 0.133 µM) | >64 |  |  |  |  |  |  |  |  | 
13 | teicoplanin [reference compound] | 0.5 | 0.5 | 0.25 | 0.25 | >64 |  |  |  |  |  |  |  |  | 
